# *1 amine or outer side, *2 acyl side, *3 side chain or, on linkers, in order; H or OH if unused. Where a SMILES comes first, the peptide text is derived from it. CO = O=C([*:1])[*:2]
# Molecular target: T1, rSmSP2 (SmSP2, serine protease 2; recombinant protease domain) (Schistosoma mansoni, UniProt V5UMR3)
# T1 construct: gene SP2; about 28 kDa on SDS-PAGE, active form
# Test: fluorogenic kinetic assay, residual P-F-R-AMC hydrolysis
# Assay type: biochemical
# Excerpt: fluorogenic kinetic assay, residual P-F-R-AMC hydrolysis on rSmSP2 (SmSP2, serine protease 2; recombinant protease domain)
# T1 sequence (V5UMR3 entry or part of it): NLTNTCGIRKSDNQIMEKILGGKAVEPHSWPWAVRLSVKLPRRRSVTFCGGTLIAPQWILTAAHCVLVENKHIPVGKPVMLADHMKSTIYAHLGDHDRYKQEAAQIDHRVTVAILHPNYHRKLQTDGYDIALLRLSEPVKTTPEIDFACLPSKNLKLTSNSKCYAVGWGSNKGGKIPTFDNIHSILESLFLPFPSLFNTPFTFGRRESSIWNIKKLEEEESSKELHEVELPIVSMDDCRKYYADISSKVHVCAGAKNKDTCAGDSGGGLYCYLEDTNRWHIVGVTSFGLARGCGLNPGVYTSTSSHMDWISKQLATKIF
structure (smiles),measurement,setting,value
NCCc1ccc(S(=O)(=O)F)cc1 [Pefabloc SC],percent inhibition,"1000 µM, 50 μM P-F-R-AMC, 0.1 M Tris-HCl pH 8.0, 37 °C, 10 min preincubation, covalent",100%
N=C(N)c1ccccc1 [Benzamidine],inhibition at 1000 µM,read-out: Concentration,100%
"CC(=O)N[C@@H](CC(C)C)C(=O)N[C@@H](CC(C)C)C(=O)N[C@H](C=O)CCCNC(=N)N [Leupeptin, N-acetyl-L-leucyl-L-leucyl-L-argininal]",inhibition at 20 µM,read-out: Inhibition (%)^c,100%
CC(C)[C@H](NC(=O)[C@H](CCCNC(=N)N)NC(=O)N[C@@H](Cc1ccccc1)C(=O)O)C(=O)N[C@H](C=O)CCCNC(=N)N [Antipain] ({Phe-CO}-Arg-Val-Arg-aldehyde),inhibition at 20 µM,read-out: Inhibition (%)^c,100%
O=c1oc(Cl)c(Cl)c2ccccc12,inhibition at 100 µM,read-out: Inhibition (%)^c,71.4 ± 3.3%
